These results are taken from ChEMBL document CHEMBL3994622, “Design and synthesis of new RAF kinase-inhibiting antiproliferative quinoline derivatives. Part 2: Diarylurea derivatives” (Eur J Med Chem, 2017).

Holding throughout (type): functional
The test system of one test is BT-549. Briefly: Growth inhibition of human BT549 cells assessed as cell growth at 0.003 uM incubated for 48 hrs by sulforhodamine B assay relative to control. The conditions noted are these: BT-549, 48 h, read-out: Activity.
The subject of test [1] is MCF7. As to the kind of experiment: Growth inhibition of human MCF7 cells assessed as cell growth at 3 uM incubated for 48 hrs by sulforhodamine B assay relative to control. The conditions noted are these: MCF7, 48 h, read-out: Activity. (In general: In SRB staining, fixed cells bind dye roughly in proportion to their protein.)
For the next test, the system named is A498. As to the kind of experiment: Growth inhibition of human A498 cells assessed as cell growth at 0.3 uM incubated for 48 hrs by sulforhodamine B assay relative to control. The conditions noted are these: A498, 48 h, read-out: Activity.
The subject of a further test is UO-31. As to the kind of experiment: Growth inhibition of human UO31 cells assessed as cell growth at 0.003 uM incubated for 48 hrs by sulforhodamine B assay relative to control. As to conditions: UO-31, 48 h, read-out: Activity.
The next test concerns COLO 205. As to the kind of experiment: Growth inhibition of human COLO205 cells assessed as cell growth at 30 uM incubated for 48 hrs by sulforhodamine B assay relative to control. As to conditions: COLO 205, 48 h, read-out: Activity.
A further test concerns NCI-H23. Briefly: Growth inhibition of human NCI-H23 cells assessed as cell growth at 30 uM incubated for 48 hrs by sulforhodamine B assay relative to control. As to conditions: NCI-H23, 48 h, read-out: Activity.
Test [2] has as its system SW-620. As to the kind of experiment: Growth inhibition of human SW620 cells assessed as cell growth at 0.003 uM incubated for 48 hrs by sulforhodamine B assay relative to control. As to conditions: SW-620, 48 h, read-out: Activity.
A further test relates to PC-3. Briefly: Growth inhibition of human PC3 cells assessed as cell growth at 30 uM incubated for 48 hrs by sulforhodamine B assay relative to control. The conditions noted are these: PC-3, 48 h, read-out: Activity.
In test [3] the test system is NCI/ADR-RES. As to the kind of experiment: Growth inhibition of human NCI/ADR-RES cells assessed as cell growth at 0.3 uM incubated for 48 hrs by sulforhodamine B assay relative to control. The conditions noted are these: read-out: Activity.
A further test relates to NCI-H322M. As to the kind of experiment: Growth inhibition of human NCI-H322M cells assessed as cell growth at 0.03 uM incubated for 48 hrs by sulforhodamine B assay relative to control. The conditions noted are these: read-out: Activity.
A further test has as its system SK-MEL-5. Briefly: Growth inhibition of human SK-MEL-5 cells assessed as cell growth at 0.003 uM incubated for 48 hrs by sulforhodamine B assay relative to control. The conditions noted are these: SK-MEL-5, 48 h, read-out: Activity.
A further test concerns ACHN. Briefly: Growth inhibition of human ACHN cells assessed as cell growth at 3 uM incubated for 48 hrs by sulforhodamine B assay relative to control. As to conditions: read-out: Activity.
The next test relates to OVCAR-8. As to the kind of experiment: Growth inhibition of human OVCAR8 cells assessed as cell growth at 3 uM incubated for 48 hrs by sulforhodamine B assay relative to control. The conditions noted are these: OVCAR-8, 48 h, read-out: Activity.
Test [4] deals with SW-620. Briefly: Growth inhibition of human SW620 cells assessed as cell growth at 30 uM incubated for 48 hrs by sulforhodamine B assay relative to control. The conditions noted are these: SW-620, 48 h, read-out: Activity.
In test [5] the test system is MCF7. Briefly: Growth inhibition of human MCF7 cells assessed as cell growth at 0.003 uM incubated for 48 hrs by sulforhodamine B assay relative to control. The conditions noted are these: MCF7, 48 h, read-out: Activity.
Test [6] relates to SK-OV-3. As to the kind of experiment: Growth inhibition of human SKOV3 cells assessed as cell growth at 10 uM incubated for 48 hrs by sulforhodamine B assay relative to control. The conditions noted are these: SK-OV-3, 48 h, read-out: Activity.
Test [7] concerns SK-MEL-2. As to the kind of experiment: Growth inhibition of human SK-MEL-2 cells assessed as cell growth at 1 uM incubated for 48 hrs by sulforhodamine B assay relative to control. As to conditions: SK-MEL-2, 48 h, read-out: Activity.
A further test concerns A549. Briefly: Growth inhibition of human A549/ATCC cells assessed as cell growth at 0.01 uM incubated for 48 hrs by sulforhodamine B assay relative to control. The conditions noted are these: A549, 48 h, read-out: Activity.
For test [8], the system named is SK-MEL-2. Briefly: Growth inhibition of human SK-MEL-2 cells assessed as cell growth at 0.1 uM incubated for 48 hrs by sulforhodamine B assay relative to control. As to conditions: SK-MEL-2, 48 h, read-out: Activity.
Another test has as its system HCT-116. Briefly: Growth inhibition of human HCT116 cells assessed as cell growth at 0.01 uM incubated for 48 hrs by sulforhodamine B assay relative to control. The conditions noted are these: HCT-116, 48 h, read-out: Activity.
For test [9], the system named is SK-OV-3. As to the kind of experiment: Growth inhibition of human SKOV3 cells assessed as cell growth at 1 uM incubated for 48 hrs by sulforhodamine B assay relative to control. As to conditions: SK-OV-3, 48 h, read-out: Activity.
The next test deals with HCT-15. Briefly: Growth inhibition of human HCT15 cells assessed as cell growth at 10 uM incubated for 48 hrs by sulforhodamine B assay relative to control. The conditions noted are these: HCT-15, 48 h, read-out: Activity.
A further test relates to OVCAR-5. As to the kind of experiment: Growth inhibition of human OVCAR5 cells assessed as cell growth at 10 uM incubated for 48 hrs by sulforhodamine B assay relative to control. The conditions noted are these: OVCAR-5, 48 h, read-out: Activity.
In another test the test system is EKVX. Briefly: Growth inhibition of human EKVX cells assessed as cell growth at 100 uM incubated for 48 hrs by sulforhodamine B assay relative to control. As to conditions: read-out: Activity.
A further test has as its system UACC-62. Briefly: Growth inhibition of human UACC62 cells assessed as cell growth at 0.1 uM incubated for 48 hrs by sulforhodamine B assay relative to control. As to conditions: UACC-62, 48 h, read-out: Activity.
Another test concerns HL-60(TB). As to the kind of experiment: Growth inhibition of human HL-60(TB) cells assessed as cell growth at 100 uM incubated for 48 hrs by sulforhodamine B assay relative to control. As to conditions: HL-60, 48 h, read-out: Activity.
Another test deals with U-251. As to the kind of experiment: Growth inhibition of human U251 cells assessed as cell growth at 10 uM incubated for 48 hrs by sulforhodamine B assay relative to control. The conditions noted are these: U-251, 48 h, read-out: Activity.
For the next test, the system named is CAKI-1. Briefly: Growth inhibition of human Caki1 cells assessed as cell growth at 1 uM incubated for 48 hrs by sulforhodamine B assay relative to control. The conditions noted are these: CAKI-1, 48 h, read-out: Activity.
Test [10] relates to NCI/ADR-RES. As to the kind of experiment: Growth inhibition of human NCI/ADR-RES cells assessed as cell growth at 100 uM incubated for 48 hrs by sulforhodamine B assay relative to control. As to conditions: read-out: Activity.
Test [11] relates to SW-620. As to the kind of experiment: Growth inhibition of human SW620 cells assessed as cell growth at 1 uM incubated for 48 hrs by sulforhodamine B assay relative to control. As to conditions: SW-620, 48 h, read-out: Activity.
The test system of test [12] is NCI-H226. Briefly: Growth inhibition of human NCI-H226 cells assessed as cell growth at 0.01 uM incubated for 48 hrs by sulforhodamine B assay relative to control. As to conditions: NCI-H226, 48 h, read-out: Activity.
Test [13] relates to NCI-H226. As to the kind of experiment: Growth inhibition of human NCI-H226 cells assessed as cell growth at 100 uM incubated for 48 hrs by sulforhodamine B assay relative to control. The conditions noted are these: NCI-H226, 48 h, read-out: Activity.
In the next test the test system is CCRF-CEM. Briefly: Growth inhibition of human CCRF-CEM cells assessed as cell growth at 10 uM incubated for 48 hrs by sulforhodamine B assay relative to control. As to conditions: read-out: Activity.
The subject of another test is KM12. Briefly: Growth inhibition of human KM12 cells assessed as cell growth at 10 uM incubated for 48 hrs by sulforhodamine B assay relative to control. As to conditions: KM12, 48 h, read-out: Activity.

For `Cc1nc2cc(O)c(O)cc2cc1Oc1ccc(NC(=O)Nc2ccc(Cl)c(Cl)c2)cc1`, the growth at 0.003 µM in the test on BT-549 came out at 91%; with UO-31, 91%; in the test on SW-620 [2], 100%; in the test on SK-MEL-5, 98%; in the test on MCF7 [5], 94%. In addition, the growth at 3 µM amounted to 87% with MCF7 [1], 51% with ACHN and 66% in the test on OVCAR-8. Moreover, the growth at 0.3 µM in the test with A498 is 80%; in the test on NCI/ADR-RES [3], 97%. The growth at 30 µM is 16% with COLO 205, -25% in the test on NCI-H23, 6% in the test on PC-3 and 16% in the test on SW-620 [4]. In addition, the growth at 0.03 µM with NCI-H322M came to 108%.

Turning to `COc1cc2cc(Oc3ccc(NC(=O)Nc4ccc(Cl)c(C(F)(F)F)c4)cc3)c(C)nc2cc1OC`, the growth at 0.003 µM in the test on BT-549 was found to be 98%; in the test with UO-31 it was 87%; with SW-620 [2] it was 95%; in the test on SK-MEL-5 it was 100%; in the test with MCF7 [5] it was 98%. The growth at 3 µM in the test on MCF7 [1] amounted to 7%; in the test with ACHN, 8%; with OVCAR-8, 6%. Besides, the growth at 0.3 µM with A498 worked out at 78%; in the test with NCI/ADR-RES [3] it was 94%. Moreover, the growth at 30 µM in the test with COLO 205 was -92%; in the test on NCI-H23, -75%; with PC-3, -50%; in the test on SW-620 [4] it was -87%. Moreover, in the test on NCI-H322M, the growth at 0.03 µM was 90%.

For `COc1cc2cc(Oc3ccc(NC(=O)Nc4ccc(Cl)c(Cl)c4)cc3)c(C)nc2cc1OC`, the growth at 10 µM with SK-OV-3 [6] is 41%; with HCT-15, 19%; with OVCAR-5 it was 50%; with U-251 it was -13%; with CCRF-CEM it was 4%; in the test with KM12 it was 8%. Besides, the growth at 1 µM is 121% in the test on SK-MEL-2 [7], 112% in the test with SK-OV-3 [9], 83% in the test with CAKI-1 and 107% in the test with SW-620 [11]. The growth at 0.01 µM amounted to 96% in the test on A549, 89% in the test with HCT-116 and 104% in the test on NCI-H226 [12]. Also, the growth at 0.1 µM was found to be 116% in the test on SK-MEL-2 [8] and 89% in the test with UACC-62. Further, the growth at 100 µM was -36% in the test on EKVX, -41% in the test on HL-60(TB), -46% with NCI/ADR-RES [10] and -85% with NCI-H226 [13].

Turning to `COc1cc2cc(Oc3ccc(NC(=O)Nc4cc(C(F)(F)F)cc(C(F)(F)F)c4)cc3)c(C)nc2cc1OC`, the growth at 10 µM was -75% in the test on SK-OV-3 [6]; -91% with HCT-15; -58% with OVCAR-5; -85% in the test with U-251; -33% in the test on CCRF-CEM; -75% in the test on KM12. The growth at 1 µM in the test with SK-MEL-2 [7] was found to be 85%; with SK-OV-3 [9], 88%; in the test on CAKI-1, 63%; with SW-620 [11] it was 81%. Besides, the growth at 0.01 µM with A549 was 101%; in the test on HCT-116, 97%; in the test on NCI-H226 [12], 103%. Besides, the growth at 0.1 µM came out at 94% in the test with SK-MEL-2 [8] and 96% with UACC-62. In addition, the growth at 100 µM in the test with EKVX is -94%; with HL-60(TB), -56%; with NCI/ADR-RES [10], -45%; in the test with NCI-H226 [13], -52%.
